Structures are written as SMILES. Values joined by “and” are separate entries in the source; they are usually repeats but may differ in a detail not shown here. Equal values may be shown once.

Test [1] has as its system L1210. The test can be described thus: Tested for inhibition of L1210 cell growth by the compound at a dose of 30 uM and after 48 hr. Format: functional. To be noted: Mus musculus, L1210, 48 h.
In test [2] the test system is L1210. The test can be described thus: Tested for inhibition of L1210 cell growth by the compound after 96 hr. Format: functional, cell-based. The settings on record: Mus musculus, L1210, 96 h.
Test [3] has as its system L1210. As to the kind of experiment: Tested for inhibition of L1210 cell growth by the compound after 48 hr. Format: functional, cell-based. The settings on record: Mus musculus, L1210, 48 h.
Test [4] deals with L1210. The test can be described thus: Tested for inhibition of L1210 cell growth by the compound at a dose of 50 uM and after 48 hr. Format: functional. The settings on record: Mus musculus, L1210, 48 h.
Test [5] deals with L1210. The test can be described thus: Tested for L1210 cell growth as percent of control by the compound at a dose of 100 uM and after 48 hr. To be noted: Mus musculus, L1210, 48 h.
For test [6], the system named is L1210. As to the kind of experiment: Tested for inhibition of L1210 cell growth by the compound at a dose of 30 uM and after 96 hr. Format: functional. The settings on record: Mus musculus, L1210, 96 h.
Test [7] relates to L1210. The test can be described thus: Tested for inhibition of L1210 cell growth by the compound at a dose of 25 uM and after 96 hr; No inhibition at 25 uM. Format: functional, cell-based. To be noted: Mus musculus.
Test [8] concerns L1210. As to the kind of experiment: Tested for inhibition of L1210 cell growth by the compound at a dose of 25 uM and after 48 hr; No inhibition at 25 uM. The class given is functional, cell-based. The settings on record: Mus musculus.
Test [9] deals with L1210. The test can be described thus: Tested for inhibition of L1210 cell growth by the compound at a dose of >12.5 uM and after 96 hr. The settings on record: Mus musculus.
The test system of test [10] is L1210. As to the kind of experiment: Tested for inhibition of L1210 cell growth by the compound at a dose of >12.5 uM and after 48 hr. The settings on record: Mus musculus.
Test [11] has as its system L1210. The test can be described thus: Tested for inhibition of L1210 cell growth by the compound at a dose of 50 uM and after 96 hr; No inhibition at 50 uM. The class given is functional, cell-based. To be noted: Mus musculus.
Test [12] has as its system L1210. The test can be described thus: Tested for inhibition of L1210 cell growth by the compound at a dose of 50 uM and after 48 hr; No inhibition at 50 uM. Format: functional, cell-based. The settings on record: Mus musculus.
The test system of test [13] is L1210. As to the kind of experiment: Percent of clonogenic L1210 cells to relative to control was determined after the treatment with the compound of 10 uM was for 24 hr. Format: functional, Mus musculus.
For test [14], the system named is Mus musculus. The test can be described thus: % increase in life span in mice was calculated at 5 mg/kg by ip administration. The class given is functional. The settings on record: route intraperitoneal.
The test system of test [15] is Mus musculus. The test can be described thus: Mean survival of mice with L1210 leukemia was evaluated on day 60 at 10 mg/kg by ip administration (schedule: Q8H,1-6days). The class given is functional. To be noted: route intraperitoneal.
Test [16] relates to Mus musculus. The test can be described thus: Mean survival of mice with L1210 leukemia was evaluated on day 60 at 20 mg/kg by ip administration (schedule: Q8H,1-3days). The class given is functional. To be noted: route intraperitoneal.
The subject of test [17] is Mus musculus. The test can be described thus: Mean survival of mice with L1210 leukemia was evaluated on day 60 at 20 mg/kg by ip administration (schedule: Q8H,1-4days). Format: functional. To be noted: route intraperitoneal.
In test [18] the test system is Mus musculus. As to the kind of experiment: % increase in life span in L1210 leukemic mice was calculated at 15 mg/kg by ip administration. Format: functional. To be noted: route intraperitoneal.
Test [19] can be described thus: Inhibitory concentration against growth of cultured […] cells at 72 hrs. The settings on record: Homo sapiens. Format: functional.
The nature of test [20]: Ratio of survivors to the total mice in the test group; 0/8. The class given is functional.
Test [21] has as its system Mus musculus. The test can be described thus: % increase in life span in mice was calculated at 15 mg/kg by ip administration. Format: functional. To be noted: route intraperitoneal.
The test system of test [22] is Mus musculus. As to the kind of experiment: Mean survival of L1210 leukemic mice was evaluated on day 60 at 15 mg/kg by ip administration (schedule: Q8H,1-6days). The class given is functional. To be noted: route intraperitoneal.
Test [23] is filed under the species Mus musculus. The test can be described thus: Mean survival of mice with L1210 leukemia was evaluated on day 60 with no treatment. Format: functional.
In test [24] the test system is L1210. The test can be described thus: Percent of clonogenic L1210 cells to relative to control was determined after the treatment with the compound of 10 uM was for 72 hr. Format: functional, Mus musculus.
Test [25] relates to HL-60. As to the kind of experiment: Inhibitory concentration against growth of cultured HL-60 cells at 144 hrs. Format: functional, cell-based. To be noted: Homo sapiens, HL-60, 144 h.
The subject of test [26] is L1210. As to the kind of experiment: Percent of clonogenic L1210 cells to relative to control was determined after the treatment with the compound of 10 uM was for 48 hr. The class given is functional, Mus musculus.
A short description of test [27]: Ratio of survivors to the total mice in the test group; 0/4. Format: functional.
Test [28] has as its system Mus musculus. As to the kind of experiment: % increase in life span in L1210 leukemic mice was calculated at 20 mg/kg by ip administration. To be noted: route intraperitoneal. The class given is functional.
The subject of test [29] is Mus musculus. The test can be described thus: % increase in life span in L1210 leukemic mice was calculated at 17.5 mg/kg by ip administration. Format: functional. The settings on record: route intraperitoneal.
Test [30] deals with Mus musculus. As to the kind of experiment: % increase in life span in L1210 leukemic mice was calculated at 10 mg/kg by ip administration. The class given is functional. To be noted: route intraperitoneal.
The subject of test [31] is HL-60. The test can be described thus: Inhibitory concentration against growth of cultured HL-60 cells at 72 hrs. The class given is functional, cell-based. To be noted: Homo sapiens, HL-60, 72 h.
Test [32] is described as follows: Ratio of survivors to the total mice in the test group; 0/47. Format: functional.
A short description of test [33]: Ratio of survivors to the total mice in the test group; 0/6. Format: functional.
Test [34] in a line: Inhibitory concentration against growth of cultured […] cells at 144 hrs. The class given is functional. The settings on record: Homo sapiens.
Test [35] can be described thus: Ratio of survivors to the total mice in the test group; 0/10. The class given is functional.
Test [36] concerns L1210. As to the kind of experiment: Percent of clonogenic L1210 cells to relative to control was determined after the treatment with the compound of 10 uM was for 96h. Format: functional, Mus musculus.
Test [37] can be described thus: Ratio of survivors to the total mice in the test group; 4/8. The class given is functional.
In test [38] the test system is Mus musculus. As to the kind of experiment: Mean survival of mice with 10e 5 L1210 cells was evaluated on day 60 at 15 mg/kg by ip administration (schedule: Q12H,1-6days). Format: functional. To be noted: route intraperitoneal.
For test [39], the species on record is Mus musculus. As to the kind of experiment: Ratio of survivors to the total mice in the test group; 0/13. The class given is functional.
In test [40] the test system is Mus musculus. As to the kind of experiment: Mean survival of mice with L1210 leukemia was evaluated on day 60 at 17.5 mg/kg by ip administration (schedule: Q8H,1-6days). Format: functional. The settings on record: route intraperitoneal.
Test [41] in a line: Ratio of survivors to the total mice in the test group; 9/16. The class given is functional.
The subject of test [42] is Mus musculus. As to the kind of experiment: Mean survival of mice with L1210 leukemia on day 60 at 5 mg/kg by ip administration (schedule: Q8H,1-6days). Format: functional. To be noted: route intraperitoneal.

By inhibition is commonly meant the percentage by which the read-out fell short of the control. The IC50 is the concentration that inhibits the measured activity by half. Compound `CCNCCCCNCCCNCC` gave an inhibition at 30 µM in the test on L1210 [1] of 61%. This compound also yielded an IC50 in the test with L1210 [2] of 10 µM.
Consider `CCNCCCNCCCNCCCCNCCCNCCCNCC`, for which the concentration for half-maximal inhibition (IC50) came to 50 µM in the test with L1210 [3] and 0.5 µM with L1210 [2].
The corresponding values for `CCCNCCCNCCCCNCCCNCCC` are 3 µM and 0.2 µM.
Consider `CCN(CC)CCCNCCCCNCCCN(CC)CC`, for which the inhibition at 50 µM in the test on L1210 [4] was determined as 80%. The compound further showed a half-maximal inhibitory concentration (IC50) in the test with L1210 [2] of 5 µM.
With `CCNCCCN(CC)CCCCN(CC)CCCNCC`, the figures for the half-inhibitory concentration (IC50) in the test on L1210 [3] and in the test on L1210 [2] were 100 µM and 3 µM, respectively.
In the test on L1210 [5], `CNCCCNCCCCNCCCNC` registered a control growth at 100 µM of 60%. The compound also registered a concentration for half-maximal inhibition (IC50) in the test on L1210 [2] of 0.75 µM.
On to `CCCNCCCCNCCCNCCC`, for which the inhibition at 30 µM with L1210 [6] came to 83%; in the test on L1210 [1], 88%.
With `CCN(CCCN)CCCCN(CC)CCCN`, the inhibition entry in the test on L1210 [7] and with L1210 [8] was “No inhibition” each time.
Turning to `CCNCCCCCCCCCCCCNCC`, the inhibition result in the test with L1210 [9] and with L1210 [10] was “No inhibition” throughout.
Consider `CCNCCCN1CCN(CCCNCC)CC1`, for which the inhibition result with L1210 [11] and in the test with L1210 [12] was “No inhibition” in each case.
As usually defined, the ILS is how much longer treated animals lived than controls. For the compound `CCNCCCNCCCCNCCCNCC` [BIS(ETHYL)SPERMINE], the Clones in the test on L1210 [13] was 100%; in the test on L1210 [24] it was 21%; in the test with L1210 [26], 75%; with L1210 [36], 2%. The ILS at 5 mg/kg with Mus musculus [14] is 25%. The Mean survival is 35.3 days with Mus musculus [15]; 14 days in the test on Mus musculus [16]; 18.1 days in the test on Mus musculus [17]; 46.6 days in the test on Mus musculus [22]; 9.7 days and 8.9 days in the test filed under Mus musculus [23]; 14.9 days in the test with Mus musculus [38]. Moreover, the values for the Mean survival in the test on Mus musculus [40] and in the test with Mus musculus [42] were 52.3 days and 12.3 days, respectively. For the same compound, the increase in lifespan (ILS) at 15 mg/kg in the test with Mus musculus [18] is 55%; in the test on Mus musculus [21], 376%. Also, the IC50 in [19] was greater than 40 µM; in the test on HL-60 [25], 0.3 µM; with HL-60 [31], 10 µM; in test [34] it was 0.5 µM; in the test with L1210 [3], 10 µM; with L1210 [2], 0.1 µM. The S/T amounted to 0 in test [20]; 0 in [27]; 0 in test [32]; 0 in test [33]; 0 in test [35]; 0.5 in [37]. For the same compound, the S/T in the test filed under Mus musculus [39] is 0; in test [41] it was 0.562. Besides, the increase in life span (ILS) with Mus musculus [28] was 57% and 103%. Also, in the test on Mus musculus [29], the ILS at 17.5 mg/kg was 439%. In the test with Mus musculus [30], the ILS at 10 mg/kg is 264%.

Source of the values: ChEMBL document CHEMBL1124224, “Synthetic polyamine analogues as antineoplastics” (J Med Chem, 1988).
